# Values quoted from earlier work as cited in US20070072813A1, “Methods for preventing and treating metabolic disorders and new pyrazole-O-glycoside derivatives” (priority 2005, published 2007).
# Details: metformin on its own, in the diabetic
smiles,measurement,value
CN(C)C(=N)N=C(N)N [metformin],average improvement in the HbA1c value,1.0-1.5%
